Experiments:
B16-OVA tumor = assay: B16-OVA pulmonary metastases tumor model; format: in vivo, C57BL/6 mice; settings: B16-OVA i.v., day 20
Description: (§1) C57BL/6 mice were implanted s.c. with 1×10^5 TC-1 tumor cells in the back and mice were stratified according to tumor size on day 6 tumor implantation. Alternatively, C57BL/6J mice were injected i.v. with 1×10^5 B16-OVA cells. Mice were vaccinated two times (at day 6 and 13 post tumor implantation) by s.c. injection of 10 nmoles of vaccine at the tail base. At the same time of vaccination, mice received 25 μg of STING agonist administered via 2×50 μl s.c. injections in each side of the low back. Alternatively, at the same time of vaccination, mice received 10 μg of STING agonist 2 administered via 2×100 μl s.c. injections in each side of the low back.
B16-OVA tumor bearing mice were sacrificed at day 20, lungs were perfused with a saline solution and the number of lung metastasis was counted.
B16-OVA tumor bearing mice were perfused with a saline solution to eliminate blood from the lungs before their collection. Lung-infiltrating leucocytes (LILs) were purified using mouse tumor dissociation kit from Miltenyi, following manufacturer instruction. […]
Briefly, 10^5 B16-OVA cells were injected intravenously into C57BL/6 mice. […] At day 20 (10 days after the last vaccination), lungs were perfused to eliminate blood, the number of pulmonary metastasis was counted, and lung infiltrating lymphocytes (LILs) were analyzed.

[1] = system: HPV-E7-specific CD8 T cells, splenic CD8 and CD4 T cells; assay: Immunogenicity in tumor-free mice: multimer staining and flow cytometry of blood and splenocytes; format: in vivo, C57BL/6 mice
Description: (§2) Peripheral blood and spleen mononuclear cell suspensions from mice were isolated using Ficoll-Paque gradient (GE Healthcare) before flow cytometry analysis, ex vivo stimulation or TCR avidity assay.
TILs, LILs or splenocytes were numerated and 1×10^5 or 2×10^6 cells were plated per condition, respectively. Cells were incubated with HPV-CD4, HPV-CD8, OVA-CD8 or OVA-CD4 epitope peptide, with PMA/ionomycin as a positive control or without any stimulant as a negative control, in presence of Golgi stop (BD biosciences) and anti-CD107a for 6 hours. […]
The following antibodies were used: CD45 (30-F11), CD11b (M1/70), KLRG1 (2F1), CD103 (M290), NKg2a (20d5), Ly6C (AL-21), Ly6G (1A8), PD-L1 (MIH5), I-A/I-E (M5/114), CD11c (HL3), PDCA1 (927), CD64 (X54-5/7.1), B220 (RA3-6B2), CD24 (M1/69), CD4 (GK1.5), CD25 (3C7), CD3 (500A2), NKp46 (29A1.4), TNF-α (MP6-XT22), IFN-γ (XMG1.2), H2-Kb (AF6-88.5) and H2-db (28-14-8) were from BD Biosciences; Tim3 (RMT3-23), PD-1 (29F.1A12), CD38 (90), Gr-1 (RB6-8C5), CD206 (C068C2), CD68 (FA-11) were from BioLegend; Ki67 (solA15), FoxP3 (FJK-16s), T-bet (4B10), GATA-3 (TWAJ) and RORγt (AFKJS-9) were from ThermoFisher Scientific; Granzyme B (REA226) was from Miltenyi; CD8 (KT15) was from MBL. […] Cells were analyzed using an Attune NxT flow cytometer (ThermoFisher Scientific) Kaluza (Beckman Coulter) software. […]

TC-1 tumor [2] = assay: TC-1 tumor model: intra-tumoral expression of PD-L1, MHC-I and MHC-II; format: in vivo, C57BL/6 mice
Description: as §1
(§3) TC-1 tumors were harvested at day 20 post implantation and tumor-infiltrating leucocytes (TIL) were purified using Miltenyi tumor dissociation kit following manufacturer instruction. Briefly, tumor tissues were cut into small pieces, and resuspended in DMEM medium containing tumor dissociating enzymes (Miltenyi). Tumors were digested on a Gentle MACS with heating system (Miltenyi) using solid tumor program. […]
Furthermore, down-regulation of MHC-I expression on tumor cells is one of the main mechanism of immune evasion. Therefore, the intra-tumoral expression of PD-L1 and MHC-I as well as MHC-II was also monitored in the TC-1 tumor model as described above.

TC-1 tumor [3] = assay: TC-1 tumor model: intra-tumoral CD4 T cell responses; format: in vivo, C57BL/6 mice
Description: as §1
as §3, with “program. Enzymatic digestion was stopped by adding cold PBS 0.5% BSA solution and keeping cells on ice. Digested tumors were passed through a 70 μm to eliminate remaining undigested tissue. CD45+ cells were purified using CD45 TIL microbeads (Miltenyi) following manufacturer protocol.” for “program.”
In view thereof, intra-tumoral CD4 T cells were monitored next. […]

TC-1 tumor [4] = assay: TC-1 tumor model: tumor microenvironment composition by FACS; format: in vivo, C57BL/6 mice; settings: systemic administration
Description: as §1
as §3, with “program. Enzymatic digestion was stopped by adding cold PBS 0.5% BSA solution and keeping cells on ice. Digested tumors were passed through a 70 μm to eliminate remaining undigested tissue. CD45+ cells were purified using CD45 TIL microbeads (Miltenyi) following manufacturer protocol.” for “program.”

TC-1 tumor [5] = assay: TC-1 tumor model: antigen-specific CD8 T cell responses; format: in vivo, C57BL/6 mice
Description: as §1
TC-1 tumors were harvested at day 20 post implantation and tumor-infiltrating leucocytes (TIL) were purified using Miltenyi tumor dissociation kit following manufacturer instruction. Briefly, tumor tissues were cut into small pieces, and resuspended in DMEM medium containing tumor dissociating enzymes (Miltenyi). Tumors were digested on a Gentle MACS with heating system (Miltenyi) using solid tumor program. Enzymatic digestion was stopped by adding cold PBS 0.5% BSA solution and keeping cells on ice. Digested tumors were passed through a 70 μm to eliminate remaining undigested tissue. CD45+ cells were purified using CD45 TIL microbeads (Miltenyi) following manufacturer protocol. Purified CD45+ cells were used for flow cytometry staining or ex vivo T cells stimulation.
as §2
TILs, LILs or splenocytes were numerated and 1×10^5 or 2×10^6 cells were plated per condition, respectively. […]
The following antibodies were used: CD45 (30-F11), CD11b (M1/70), KLRG1 (2F1), CD103 (M290), NKg2a (20d5), Ly6C (AL-21), Ly6G (1A8), PD-L1 (MIH5), I-A/I-E (M5/114), CD11c (HL3), PDCA1 (927), CD64 (X54-5/7.1), B220 (RA3-6B2), CD24 (M1/69), CD4 (GK1.5), CD25 (3C7), CD3 (500A2), NKp46 (29A1.4), TNF-α (MP6-XT22), IFN-γ (XMG1.2), H2-Kb (AF6-88.5) and H2-db (28-14-8) were from BD Biosciences; Tim3 (RMT3-23), PD-1 (29F.1A12), CD38 (90), Gr-1 (RB6-8C5), CD206 (C068C2), CD68 (FA-11) were from BioLegend; Ki67 (solA15), FoxP3 (FJK-16s), T-bet (4B10), GATA-3 (TWAJ) and RORγt (AFKJS-9) were from ThermoFisher Scientific; Granzyme B (REA226) was from Miltenyi; CD8 (KT15) was from MBL. […] Cells were analyzed using an Attune NxT flow cytometer (ThermoFisher Scientific) Kaluza (Beckman Coulter) software.
To this end, 10^5 TC-1 tumor cells were implanted on the back of C57BL/6 mice. […] One week after the last treatment, mice were sacrificed, tumor harvested, and CD8 T cells presence and phenotype was analyzed by FACS staining.

TC-1 tumor [6] = assay: TC-1 tumor model: tumor growth and survival (STINGa); format: in vivo, C57BL/6 mice; settings: TC-1 model, treated twice at one-week interval
Description: as §1
(§4) Tumor size was measured with a caliper and mice were euthanized when tumor reached a volume of 1000 mm^3. Tumor volume was calculated with the following formula:
(§5) V=length×length×width×Pi/6
10^5 TC-1 cells were implanted on the back of C57BL/6 mice. When tumors were visible, mice were treated twice at one-week interval as described above in therapeutic settings of the TC-1 tumor model with (i) the complex comprising a cell penetrating peptide, at least one antigen or antigenic epitope, and a TLR peptide agonist (Z13Mad25Anaxa); (ii) the STING agonist; or (iii) a combination of both.

IFN-α = assay: Quantification of serum interferon-α (ELISA) in tumor-free mice; format: in vivo, C57BL/6 mice; settings: 4 and 24 hours post first vaccination, s.c.
Description: Blood was collected from mouse tail vein and serum was isolated by centrifugation using Starstedt tubes. The concentration of IFN-α cytokine was measured using commercial ELISA kits according to the manufacturer's recommendations (PBL Assay Science).
In order to evaluate the immunogenicity of the combination, tumor-free C57BL/6 mice were vaccinated twice at 2 weeks interval (at day 0 and 14) by s.c. injection of 10 nmoles of Z13Mad25Anaxa (an exemplified a complex comprising a cell penetrating peptide, at least one antigen or antigenic epitope, and a TLR peptide agonist, which contains human papilloma virus (HPV)-derived CD4 and CD8 epitopes. At about the same time of vaccination, mice received 25 μg of STING agonist ADU-S100 administered via 2×50 μl s.c. injections in each side of the low back. Serum was collected 4 and 24 hours after the first vaccination and IFN-α concentration was measured by ELISA. Whole blood was collected at day 21 and used for antigen-specific CD8 T cells measurement by multimer flow cytometry staining. At the same time, spleens were harvested and splenocytes used for ex vivo stimulation and intracellular cytokine production was analyzed by flow cytometry. Alternatively, splenocytes were used for TCR avidity assay.

MC38-CEA tumor = MC38-CEA tumor model: CEA-specific CD8 T cells by multimer staining; format: in vivo, C57BL/6J mice; settings: multimer staining one week after second vaccination, MC38-CEA tumor-bearing mice
Description: Alternatively, female C57BL/6J mice were implanted with 5×10^5 MC38-CEA tumor cells subcutaneously on the back of the mouse and vaccinated twice at the base of the tail (at day 6 and 13 post tumor implantation) by s.c. injection of 10 nmoles of vaccine, 25 μg of STINGa (ADU-S100) or a combination of the two.
Female C57BL/6J mice were implanted with 5*10^5 MC38-CEA tumor cells subcutaneously on the back of the mouse. At day 6 and day 13 post tumor implantation, mice were vaccinated with 10 nmol of ATP128, 25 μg of a STING agonist (ADU-S100) or a combination of the two. Both the ATP128 vaccine and the STING agonist were injected subcutaneously at the base of the tail. One week after the second vaccination, mouse blood was collected from the tail vein and the frequency and the total number of CEA-specific CD8 T cells was analyzed by flow cytometry using a custom designed multimer.

TC-1 tumor [7] = assay: TC-1 tumor model: tumor growth, survival and circulating CD8 T cells (STINGa 2); format: in vivo, C57BL/6 mice; settings: TC-1 model, complex day 6 and 13, STINGa 2 s.c. days 6, 10, 13 and 17
Description: as §1, §4, §5
Similarly as described above, 10^5 TC-1 cells were implanted on the back of C57BL/6 mice and assigned to distinct groups (control (no treatment); complex comprising a cell penetrating peptide, at least one antigen or antigenic epitope, and a TLR peptide agonist (Z13Mad25Anaxa); STING agonist STINGa 2; and a combination thereof). […]

Question: Which results are given for `Nc1ncnc2c1ncn2[C@@H]1O[C@@H]2CO[P@@](=O)([S][Na])O[C@@H]3[C@H](O)[C@@H](CO[P@@](=O)([S][Na])O[C@H]2[C@H]1O)O[C@H]3n1cnc2c(N)ncnc21` [STINGa, reference compound]?
Answer: Number of metastatic nodules per lung (B16-OVA tumor): no effect; Proportion of splenic CD8 T cells [1]: higher proportion of splenic CD8 T cells; Cytokine secretion by CD8 T cells after ex vivo PMA/Ionomycin restimulation ([1]; splenocytes): increased cytokine secretion; Intra-tumoral immunogenicity (modulation of TME) (TC-1 tumor [2]): no effect was observed; Tumor infiltration by CD4 T cells (TC-1 tumor [3]): no effect on intra-tumoral CD4 T cells recruitment; Composition of TME (TC-1 tumor [4]): does not affect the composition of TME; HPV-specific proportion of tumor-infiltrating CD8 T cells (in words) (TC-1 tumor [5]; TC-1 tumor): did not modulate; Expression of exhaustion markers PD-1 and Tim-3 by tumor-infiltrating CD8 T cells (TC-1 tumor [5]; TC-1 tumor, flow cytometry): expressed only PD-1 or no exhaustion marker at all; CD8 T cells tumor infiltration (TC-1 tumor [5]; TC-1 tumor, one week after last treatment): did not modulate; Circulating HPV-specific CD8 T cells (frequency and number) (TC-1 tumor [5]; blood, one week after last treatment, TC-1 tumor-bearing mice): no effect; Tumor development / tumor growth (TC-1 tumor [6]): only a small effect on tumor growth; Serum IFN-α level (systemic type I interferon response) (IFN-α): high IFN-α serum levels peaking 4 hours post injection and decreasing already 24 hours later

Question: With “ATP128: Vaccine construct (SEQ ID NO: 54) containing CEA, survivin and ASCL2 epitopes, cell penetrating peptide and TLR peptide agonist” as the compound, how does the “CEA-specific CD8 T cell response” value (MC38-CEA tumor) read?
Answer: The value was “elicits CEA-specific CD8 T cells”.

Question: For `Nc1ncnc2c1ncn2[C@@H]1O[C@@H]2COP(=O)(S)O[C@@H]3[C@H](O)[C@@H](COP(=O)(S)O[C@H]2[C@H]1F)O[C@H]3n1cnc2c(=O)[nH]ncc21` (stereo partly drawn) [STINGa 2], which Survival (TC-1 tumor [7]) is on record?
Answer: Its Survival is “only provided a slight improvement”.

Question: What about the Tumor growth (TC-1 tumor [7]) of the same compound?
Answer: The Tumor growth was “only provided a slight improvement”.

From US20220111028A1, “Combination Of A STING Agonist And A Complex Comprising A Cell Penetrating Peptide, A Cargo And A TLR Peptide Agonist” (priority 2020, published 2022)
